Laboratory results taken from the NIST ThermoML archive (doi:10.1016/j.jct.2015.10.017).

Assay: mn = molality of the nth substance listed, in mol/kg
Details: 100 kPa, Liquid, Falling or rolling sphere viscometry

O=P([O-])([O-])O.[Na+].[Na+] [disodium hydrogen phosphate] + O
viscosity [mPa·s]
Details | 288.15 K | 293.15 K | 298.15 K | 303.15 K | 308.15 K
m1 = 0.01669 | 1.056 | 0.9429 | 0.8421 | 0.806 | 0.7281
m1 = 0.03487 | 1.069 | 0.9556 | 0.8532 | 0.8146 | 0.7367
m1 = 0.05412 | 1.084 | 0.969 | 0.865 | 0.8238 | 0.7459
m1 = 0.06194 | 1.089 | 0.9745 | 0.8698 | 0.8275 | 0.7496
m1 = 0.08565 | 1.107 | 0.9911 | 0.8843 | 0.8387 | 0.7608
m1 = 0.162 | 1.164 | 1.044 | 0.931 | 0.8749 | 0.797
m1 = 0.255 | 1.234 | 1.109 | 0.9879 | 0.9189 | 0.841
m1 = 0.3161 | 1.28 | 1.152 | 1.025 | 0.9479 | 0.87
m1 = 0.4813 | 1.404 | 1.268 | 1.126 | 1.026 | 0.9483
m1 = 0.6261 | 1.513 | 1.369 | 1.215 | 1.095 | 1.017
m1 = 0.7501 | 1.606 | 1.456 | 1.291 | 1.154 | 1.076
m1 = 0.8501 | 1.681 | 1.525 | 1.352 | 1.201 | 1.123
m1 = 0.959 | 1.762 | 1.602 | 1.419 | 1.253 | 1.175

O=P([O-])([O-])O.[K+].[K+] [dipotassium hydrogen phosphate] + O
viscosity [mPa·s]
Details | 288.15 K | 293.15 K | 298.15 K | 303.15 K | 308.15 K
m1 = 0.01682 | 1.05 | 0.9382 | 0.8385 | 0.804 | 0.7261
m1 = 0.03476 | 1.058 | 0.9456 | 0.8455 | 0.8103 | 0.7324
m1 = 0.05442 | 1.066 | 0.9538 | 0.8532 | 0.8173 | 0.7394
m1 = 0.06215 | 1.069 | 0.957 | 0.8562 | 0.82 | 0.7421
m1 = 0.08596 | 1.079 | 0.9669 | 0.8655 | 0.8284 | 0.7505
m1 = 0.1633 | 1.112 | 0.9989 | 0.8957 | 0.8556 | 0.7777
m1 = 0.2499 | 1.149 | 1.035 | 0.9296 | 0.8861 | 0.8082
m1 = 0.3088 | 1.174 | 1.059 | 0.9526 | 0.9068 | 0.8289
m1 = 0.4795 | 1.246 | 1.13 | 1.019 | 0.9669 | 0.889
m1 = 0.628 | 1.309 | 1.192 | 1.077 | 1.019 | 0.9412
m1 = 0.7511 | 1.361 | 1.243 | 1.126 | 1.062 | 0.9846
m1 = 0.8468 | 1.401 | 1.283 | 1.163 | 1.096 | 1.018
m1 = 0.9565 | 1.448 | 1.328 | 1.206 | 1.135 | 1.057
